# Test results reported in PubChem BioAssay AID2060596 (Global Health Medicines R&D, GSK, 2025).
# The source made the active and inactive calls.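 The calls were made as follows: active = IC50 at or below about 50119 nM, measured in restricted growth medium; inactive = the rest.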
# Tested on: HepG2 viability, ATP luminescence, 48 h
# Assay: viability loss in human liver HepG2 cells – cytotoxicity control, dose response (AID 2060596)
row,SMILES,IC50
1,O=C(c1cc2ccccc2[nH]1)N1CCC2(CC(Nc3ccncn3)C2)C1 (stereo not drawn),63.1 µM
2,Cc1ccc2nc(CCNC(=O)CCS(=O)(=O)c3ccc4c(c3)CC(=O)N4C)[nH]c2c1,> 100 µM (inactive)
3,O=C1CSc2ccc(C(=O)Nc3ccc(-c4nnc5n4CCCCC5)cc3)cc2N1,> 100 µM (inactive)
4,COc1ccc(N2CCN(C(=O)c3csc(Nc4ccccc4S(C)(=O)=O)n3)CC2)nc1,> 100 µM (inactive)
5,O=C1CCCN1c1ccc(S(=O)(=O)N2CCN(S(=O)(=O)c3ccccc3)CC2)cc1,> 100 µM (inactive)
6,O=C(CCCc1c[nH]c2ccccc12)N1CCN(c2ccc(N3CCOCC3)nn2)CC1,> 100 µM (inactive)
7,N#Cc1c(N)n[nH]c1CCCNC(=O)c1ccc(Cl)c(S(=O)(=O)N2CCCC2)c1,> 100 µM (inactive)
8,Cc1nn(C2CCS(=O)(=O)C2)c(C)c1CN(C)C(=O)CN1C(=O)NC2(CCCCC2C)C1=O (stereo not drawn),79.4 µM
9,O=C(CCn1nnc2cc(S(=O)(=O)N3CCCC3)ccc21)N1CCN(c2ccccn2)CC1,> 100 µM (inactive)
10,COc1ccc(-c2ccc(CNC(=O)c3cc(C(=O)NC(C)C)ccc3Cl)cc2)cn1,> 100 µM (inactive)
11,O=C(NCCCN1CCc2ccccc21)c1ccc2c(=O)n(Cc3ccccn3)cnc2c1,> 100 µM (inactive)
12,O=C(CCCc1ncc(-c2ccccc2)o1)N1CCOC2CCCC21 (stereo not drawn),> 100 µM (inactive)
13,Cc1cccc(-c2nn(Cc3ccc(C(=O)NCCCO)cc3)c(=O)cc2N2CCCC(CO)C2)c1 (stereo not drawn),> 100 µM (inactive)
14,COc1ccc(NC(=O)c2ccc3c(=O)n(Cc4ccccn4)cnc3c2)cc1N1CCN(C)CC1,> 100 µM (inactive)
15,CC(C)Oc1ccc(-c2nnc(Oc3cccc4c3CCN(CCC(N)=O)CC4)s2)cc1C#N,20 µM
16,NC(=O)CC1CCN(C(=O)c2sc3sccc3c2Cl)CC1,> 100 µM (inactive)
17,COc1ccc2oc(C(=O)NC3CCC(Oc4ncccn4)CC3)cc2c1 (stereo not drawn),> 100 µM (inactive)

row,SMILES,IC50
1,Cc1cc(-c2cnc(N3CCn4c(nnc4C4CC4)C3)nc2-c2ccncc2)on1,> 100 µM (inactive)
2,COc1ccc(C(=O)N2CCN(c3ccc(-n4cccn4)nn3)CC2)cc1OC,> 100 µM (inactive)
3,O=C(Nc1cccnc1)C1CCN(c2ccc(-c3ccco3)nn2)CC1,> 100 µM (inactive)
4,O=C(CCN=C1NS(=O)(=O)c2ccccc21)Nc1ccc(S(=O)(=O)N2CCCC2)cc1,> 100 µM (inactive)
5,O=C(/C=C/c1n[nH]c2ccccc12)Nc1ccc(C(=O)NCCN2CCOCC2)cc1,> 100 µM (inactive)
6,CCN(C(=O)C=Cc1ccc(S(=O)(=O)N2CCc3ccccc32)cc1)C1CCS(=O)(=O)C1 (stereo not drawn),> 100 µM (inactive)
7,Cc1cc(Cl)ccc1OCC(=O)N1CCc2c(cnc(C)c2CNC(=O)c2ccc(=O)[nH]n2)C1,> 100 µM (inactive)
8,O=C(/C=C/c1n[nH]c2ccccc12)N1CCN(c2cnccn2)CC1,> 100 µM (inactive)
9,O=C(Nc1ccc(N2CCCC2)nc1)N1CCN(c2cnccn2)CC1,> 100 µM (inactive)
10,CCN(CC)c1ccc(C(=O)COc2ccc3c(c2)CCNCC3)cc1,31.6 µM
11,N#Cc1cccc(NC(=O)CNc2ccccc2C(=O)NC2CC2)c1,> 100 µM (inactive)
12,CN(C(=O)C[C@@H]1CCN(C(=O)C2CC2)C1)c1ccc(-c2ccc(C#N)cc2)cc1,> 100 µM (inactive)
13,O=C(Nc1nnc(-c2ccccc2)s1)N1CCCN(c2ncccn2)CC1,> 100 µM (inactive)
14,CCCOc1cncc(S(=O)(=O)c2ccc3c(c2)CCN(C2CCC2)CC3)c1,50.1 µM
15,Cn1cccc1C1CCCN1CC(=O)Nc1ccc(S(=O)(=O)N2CCOCC2)cc1 (stereo not drawn),> 100 µM (inactive)
16,O=C(COc1ccc(Br)cc1F)N1CCN(c2cnccn2)CC1,> 100 µM (inactive)
